# Assays:
# [1] = tested on: HL-60 cells differentiated into neutrophil cells; assay: ROS production induced by PMA in HL-60 cells differentiated into neutrophil cells; type: cell-based; details: Homo sapiens, 0.5 h; differentiated HL-60 cells, compounds 0.5 uM (0.5 mM in the source) for 30 minutes, 200 nM PMA, L-012 luminescence
# Excerpt: In order to confirm the effect of the compounds of Synthetic examples on ROS production from fibroblasts and specific substrate cells, ROS production was induced by stimulation of PMA (phorbol 12-myristate 13-acetate), TGF-β1, palmitate or high concentration-glucose, or the like, in HL-60 cells differentiated into neutrophil cells by DMSO treatment, NHLF (normal human lung fibroblast, Lonza), LX-2 (human hepatic stellate cells, Sigma), ARPE19 (human retinal pigment epithelial cell, ATCC), and KEL-FIB (Keloid fibroblast, ATCC) cells, and under this condition, the inhibitory effect of ROS production of the compounds of Synthetic Examples was observed.
# HL-60 cells (human leukemia cells, ATCC) were suspended in a medium containing 1.25% DMSO (RPMI+10% FBS) and cultured under the condition of 5% CO2, 37° C. for 6 days, thereby inducing differentiation into neutrophil cells. […] Then, to each well comprising the cells and drug, 200 nM PMA was treated to induce ROS production, and such ROS production was measured by observing the luminescence level of each well using 100 μM L-012.
# [2] = tested on: HFF-1 cells; assay: Collagen gel contraction induced by TGF-β1 in HFF-1 cells; type: cell-based, human; details: HFF-1 cells in collagen gel, TGF-β1 10 ng/ml, 72 hours, FIG. 7
# Excerpt: In order to confirm the effect of the compounds of Synthetic examples on differentiation of fibroblasts into myofibroblasts, the inhibitory effect of the compounds of Synthetic examples on the phenomenon of contraction of gel induced by interaction of human foreskin fibroblasts (HFF-1, ATCC) and collagen was observed.
# The mixed solution of the HFF-1 cells and collagen (bovine type I collagen) prepared at a concentration of 3×10^6 cells/ml was aliquoted in a 24 well plate, respectively, and then cultured under the condition of 5% CO2, 37° C. for 1 hour to induce gel polymerization. Then, after suspending the gel attached on the plate from the plate using a spoon, a medium comprising TGF-β1 and Synthetic example compounds was added to each well. After culturing for 72 hours, the Synthetic example compounds were treated by 10, 20, 30, 40, 60 and 80 μM to measure the size of the gel, and thereby, the degree of contraction of the gel by drug treatment was confirmed.
# [3] = tested on: IL-8; assay: Expression of IL-8 in pancreatic cancer associated fibroblasts (ELISA); type: cell-based, human; details: P.CAF cells, 48 hours treatment, FIG. 6
# Procedure: (§1) In order to confirm the effect of the compounds of Synthetic examples of the present invention on inflammation reaction in cancer associated fibroblasts, whether the expression of IL6 and IL8 was inhibited by the compounds of Synthetic examples in pancreatic cancer associated fibroblasts (P.CAF) was observed.
# (§2) After inoculating 1.5×10^5 cells in a 6 well plate and then culturing in P.CAF complete media for 48 hours, the compounds of Synthetic examples were treated by 10, 20, 30, 40, 60 and 80 μM for 48 hours according to each condition, and then the expression of IL-6 and IL-8 was confirmed by performing ELISA with Quantkine ELISA kit (R&D systems) as follows.
# (§3) 100 μl of the culture solution in which the compounds of Synthetic examples were treated for 48 hours was added to the microplate strip for analysis including a 100 μl assay diluent and left at a room temperature for 2 hours and then the contents were removed, and then it was washed with 400 μl wash buffer 4 times. 200 μl of a human IL-6 or IL-8 conjugate was added and left at a room temperature for 2 hours and then the contents were removed, and then it was washed with 400 μl wash buffer 4 times. 200 μl of substrate solution was added and left at a room temperature for 20 minutes and then 50 μl of stop solution was added, and the absorbance at a wavelength of 450 nm was measured within 30 minutes to confirm the expression level of IL-6 and IL-8.
# [4] = tested on: IL-6; assay: Expression of IL-6 in pancreatic cancer associated fibroblasts (ELISA); type: cell-based, human; details: P.CAF cells, 48 hours treatment, FIG. 5
# Procedure: as §1, §2, §3
Compound,inhibition at 0.5 µM [1] [%],contraction of the gel induced by TGF-β1 [2],IL-8 expressed in P.CAF [3],IL-6 expressed in P.CAF [4]
"COc1cccc(CN(C)C2CCc3nn(-c4ccccn4)c(O)c3C2)c1 (stereo not drawn) [Compound 13, 5-[(3-Methoxybenzyl)methylamino]-2-(pyridin-2-yl)-4,5,6,7-tetrahydro-2H-indazol-3-ol]",> 70,effectively inhibited,,
"CN(Cc1cc2ccccc2cn1)C1CCc2nn(-c3ccccn3)c(O)c2C1 (stereo not drawn) [Compound 62, 5-[(Isoquinolin-3-ylmethyl)methylamino]-2-(pyridin-2-yl)-4,5,6,7-tetrahydro-2H-indazol-3-ol]",> 70,effectively inhibited,effectively inhibited,effectively inhibited
"CN(Cc1cccc(S(C)(=O)=O)c1)C1CCc2nn(-c3ccccn3)c(O)c2C1 (stereo not drawn) [Compound 23, 5-[Methyl(3-methylsulfonylbenzyl)amino]-2-(pyridin-2-yl)-4,5,6,7-tetrahydro-2H-indazol-3-ol]",50 to 70,effectively inhibited,effectively inhibited,effectively inhibited
"Oc1c2c(nn1-c1ccccn1)CCC(N1CCCCC1)C2 (stereo not drawn) [Compound 14, 5-Piperidin-1-yl-2-(pyridin-2-yl)-4,5,6,7-tetrahydro-2H-indazol-3-ol]",50 to 70,effectively inhibited,,
"CN(Cc1ccc2ncccc2c1)C1CCc2nn(-c3ccccn3)c(O)c2C1 (stereo not drawn) [Compound 63, 5-[Methyl(quinolin-6-ylmethyl)amino]-2-(pyridin-2-yl)-4,5,6,7-tetrahydro-2H-indazol-3-ol]",> 70,effectively inhibited,effectively inhibited,effectively inhibited
"CN1CCN(C2CCc3nn(-c4ncccn4)c(O)c3C2)CC1 (stereo not drawn) [Compound 108, 5-(4-Methylpiperazin-1-yl)-2-(pyrimidin-2-yl)-4,5,6,7-tetrahydro-2H-indazol-3-ol]",> 70,,,
"CN(Cc1ccc(C#N)cc1)C1CCc2nn(-c3ccccn3)c(O)c2C1 (stereo not drawn) [Compound 3, 4-{[(3-Hydroxy-2-(pyridin-2-yl)-4,5,6,7-tetrahydro-2H-indazol-5-yl)methylamino]methyl}benzonitrile]",> 70,,,
"COc1ccc(CNC2CCc3nn(-c4ccccn4)c(O)c3C2)cc1 (stereo not drawn) [Compound 88, 5-((4-Methoxybenzyl)amino)-2-(pyridin-2-yl)-4,5,6,7-tetrahydro-2H-indazol-3-ol]",50 to 70,,,
"CN(C1CCc2nn(-c3ccccn3)c(O)c2C1)C1CCCc2cccnc21 (stereo not drawn) [Compound 33, 5-[Methyl(5,6,7,8-tetrahydroquinolin-8-yl)amino]-2-(pyridin-2-yl)-4,5,6,7-tetrahydro-2H-indazol-3-ol]",50 to 70,effectively inhibited,effectively inhibited,effectively inhibited
"Cc1ccc(CN(C)C2CCc3nn(-c4ccccn4)c(O)c3C2)cc1 (stereo not drawn) [Compound 24, 5-[Methyl-(4-methylbenzyl)amino]-2-(pyridin-2-yl)-4,5,6,7-tetrahydro-2H-indazol-3-ol]",30 to 50,,,
"CN(Cc1ccc(F)cc1F)C1CCc2nn(-c3ccccn3)c(O)c2C1 (stereo not drawn) [Compound 5, 5-[(2,4-Difluorobenzyl)methylamino]-2-(pyridin-2-yl)-4,5,6,7-tetrahydro-2H-indazol-3-ol]",> 70,effectively inhibited,effectively inhibited,effectively inhibited
"CCCCN(Cc1ccccc1)C1CCc2nn(-c3ccccn3)c(O)c2C1 (stereo not drawn) [Compound 22, 5-(Benzylbutylamino)-2-(pyridin-2-yl)-4,5,6,7-tetrahydro-2H-indazol-3-ol]",< 30,,,
"CN(Cc1ccc(C(F)(F)F)cc1)C1CCc2nn(-c3ccccn3)c(O)c2C1 (stereo not drawn) [Compound 8, 5-[Methyl-(4-trifluoromethylbenzyl)amino]-2-pyridin-2-yl-4,5,6,7-tetrahydro-2H-indazol-3-ol]",< 30,,,
"CCCN1CCN(C2CCc3nn(-c4ccccn4)c(O)c3C2)CC1 (stereo not drawn) [Compound 100, 5-(4-Propylpiperazin-1-yl)-2-(pyridin-2-yl)-4,5,6,7-tetrahydro-2H-indazol-3-ol]",50 to 70,,,
"CN1CCN(C2CCc3nn(-c4ccc(C(F)(F)F)cc4)c(O)c3C2)CC1 (stereo not drawn) [Compound 95, 5-(4-Methylpiperazin-1-yl)-2-(4-(trifluoromethyl)phenyl)-4,5,6,7-tetrahydro-2H-indazol-3-ol]",50 to 70,,,
"O=C(C1CC1)N1CCN(C2CCc3nn(-c4ccccn4)c(O)c3C2)CC1 (stereo not drawn) [Compound 38, Cyclopropyl[4-(3-hydroxy-2-(pyridin-2-yl)-4,5,6,7-tetrahydro-2-indazol-5-yl)piperazin-1-yl]methanone]",> 70,effectively inhibited,effectively inhibited,effectively inhibited
"Oc1c2c(nn1-c1ccccn1)CCC(N(Cc1ccccc1)C1CC1)C2 (stereo not drawn) [Compound 2, 5-(Benzylcyclopropylamino)-2-(pyridin-2-yl)-4,5,6,7-tetrahydro-2H-indazol-3-ol]",> 70,,,
"CN(Cc1cccc(C(F)(F)F)c1)C1CCc2nn(-c3ccccn3)c(O)c2C1 (stereo not drawn) [Compound 10, 5-[Methyl-(3-trifluoromethylbenzyl)-amino]-2-pyridin-2-yl-4,5,6,7-tetrahydro-2H-indazol-3-ol]",30 to 50,,,
"Oc1c2c(nn1-c1ccccn1)CCC(N1CCN(CCc3ccccc3)CC1)C2 (stereo not drawn) [Compound 104, 5-(4-Penethylpiperazin-1-yl)-2-(pyridin-2-yl)-4,5,6,7-tetrahydro-2H-indazol-3-ol]",50 to 70,,,
"Cc1cccc(CN(C)C2CCc3nn(-c4ccccn4)c(O)c3C2)c1 (stereo not drawn) [Compound 9, 5-[Methyl-(3-methylbenzyl)amino]-2-(pyridin-2-yl)-4,5,6,7-tetrahydro-2H-indazol-3-ol]",50 to 70,,,
"Oc1c2c(nn1-c1ccccn1)CCC(N1CCCC1)C2 (stereo not drawn) [Compound 96, 2-(Pyridin-2-yl)-5-(pyrrolidin-1-yl)-4,5,6,7-tetrahydro-2H-indazol-3-ol]",50 to 70,,,
"CN1CCN(c2cccc3nc(CN(C)C4CCc5nn(-c6ccccn6)c(O)c5C4)cn23)CC1 (stereo not drawn) [Compound 37, 5-{Methyl[5-(4-methylpiperazin-1-yl)imidazo[1,2-a]pyridin-2-yl]methylamino}-2-(pyridin-2-yl)-4,5,6,7-tetrahydro-2H-indazol-3-ol]",30 to 50,,,
"Cc1ccccc1CN(C)C1CCc2nn(-c3ccccn3)c(O)c2C1 (stereo not drawn) [Compound 29, 5-[Methyl-(2-methylbenzyl)amino]-2-(pyridin-2-yl)-4,5,6,7-tetrahydro-2H-indazol-3-ol]",30 to 50,,,
"CN1CCN(C2CCc3nn(-c4ccc(F)cc4)c(O)c3C2)CC1 (stereo not drawn) [Compound 102, 2-(4-Fluorophenyl)-5-(4-methylpiperazin-1-yl)-4,5,6,7-tetrahydro-2H-indazol-3-ol]",> 70,,,
"CC(=O)c1ccc(N2CCN(C3CCc4nn(-c5ccccn5)c(O)c4C3)CC2)cc1 (stereo not drawn) [Compound 130, 1-(4-(4-(3-Hydroxy-2-(pyridin-2-yl)-4,5,6,7-tetrahydro-2H-indazol-5-yl)piperazin-1-yl)phenyl)ethan-1-one]",> 70,,,

# — US11999718B2, “Pyrazole derivatives” (Aptabio Therapeutics Inc., priority 2021, dated 2024)
